Tested on: MKL-1 (VP-MCC) cells
Experiment: Differential growth inhibition/cytotoxicity assay (CellTiterGlo/XTT), MKL-1
Conditions: Homo sapiens, MKL-1, 72 h, read-out: IC50 (ave ± sd)

## CC1(C)CCC(c2ccc(Cl)cc2)=C(CN2CCN(c3ccc(C(=O)NS(=O)(=O)c4ccc(N[C@H](CCN5CCOCC5)CSc5ccccc5)c(S(=O)(=O)C(F)(F)F)c4)cc3)CC2)C1 [Navitoclax]
  IC50: 0.2 ± 0.029 µM

Reference: paper PMC8245553, “Identification of natural product modulators of Merkel cell carcinoma cell growth and survival” (Scientific Reports, 2021)
